In brackets after ≈: the same amount, converted by molar mass. Bridge positions count the residues as written; N and C are the ends. Square brackets hold non-standard residues; d marks the D form. Peptide text beside a SMILES is read from it. * marks the point of attachment. Ala(4-thiazolyl) = N[C@@H](Cc1cscn1)C(=O)O; NMeNle(6-CHF2) = CN[C@@H](CCCCC(F)F)C(=O)O; Phe(3-Cl) = N[C@@H](Cc1cccc(Cl)c1)C(=O)O; NMehPhe = CN[C@@H](CCc1ccccc1)C(=O)O; NMeF = CN[C@@H](Cc1ccccc1)C(=O)O; NMeD = CN[C@@H](CC(=O)O)C(=O)O; NMeS = CN[C@@H](CO)C(=O)O; Pip = O=C(O)[C@@H]1CCCCN1; Nle = CCCC[C@H](N)C(=O)O; Pyrrolidide = C1CCN(*)C1; dNMeA = CN[C@H](C)C(=O)O; Propyl = CCC*
Assays:
[1] = Evaluation of Caco-2 membrane permeability; conditions: human, Caco-2, pH 6.5, Permeability coefficient (Caco-2 Papp), FaSSIF/HBSS buffer pH 6.5 apical
claudin protein = conditions: Drug Metab. Pharmacokinet., 26 (2): 162170 (2011); cited from earlier work
[2] = Evaluation of solubility in 50 mM phosphate buffer (PPB, pH 6.5); assay type: physicochemical; conditions: 50 mM phosphate buffer pH 6.5, 37° C., 1 atm, 22 to 24 hours
Protocol: To an excess amount of lyophilized powder of the compound, 50 mM phosphate buffer (PPB: Phosphate buffer, pH 6.5) is added, and after shaking (37° C., 1 atm, 1800 rpm, for 22 to 24 hours), the mixture is filtered with a filter, and the compound concentration of the filtrate is measured by LC/MS/MS. Solubility (μg/mL) is calculated from the measured compound concentration.
Solubility (g/mL) was calculated from the measured compound concentration.

[3] = Without 5 mM lauroyl-L-carnitine

SMILES	Papp A→B at 180 min [1, 3] [nm/s]	Papp A→B at 180 min ([1]; With 5 mM lauroyl-L-carnitine) [nm/s]	solubility [2] [mg/mL]	Effect on expression of claudin protein / tight junction (claudin protein)
CC[C@H](C)[C@@H]1NC(=O)[C@H](CC(C)C)N(C)C(=O)CC(C(=O)N2CCOCC2)N(C)C(=O)[C@H](C2CCCC2)N(C)C(=O)C2(CCCC2)NC(=O)[C@@H]2CCCN2C(=O)[C@H](CCc2ccc(C(F)(F)F)c(Cl)c2)NC(=O)CN(C)C(=O)[C@H](CC2CCCCC2)N(C)C(=O)[C@@H]2CCN2C(=O)[C@H](C)N(C)C1=O (single isomer, unassigned) [Compound 2]	0.491	2.65		
CCCCCCCCCCCC(=O)O[C@H](CC(=O)[O-])C[N+](C)(C)C [lauroyl-L-carnitine]				suppresses the expression of claudin protein and thus expands the tight junction
CC[C@H](C)[C@@H]1NC(=O)[C@H](CC(C)C)N(C)C(=O)CC(C(=O)N2CCCCC2)N(C)C(=O)[C@H](C2CCCC2)N(C)C(=O)C2(CCCC2)NC(=O)[C@@H]2CCCN2C(=O)[C@H](CCc2ccc(C(F)(F)F)c(Cl)c2)NC(=O)CN(C)C(=O)[C@H](CC2CCCCC2)N(C)C(=O)[C@@H]2CCN2C(=O)[C@H](C)N(C)C1=O (single isomer, unassigned) [Compound 8]	0.42	1.54		

Continued, in another order:

Papp A→B at 180 min [1, 3] [nm/s]	Papp A→B at 180 min ([1]; With 5 mM lauroyl-L-carnitine) [nm/s]	solubility [2] [mg/mL]	SMILES	Effect on expression of claudin protein / tight junction (claudin protein)
< 0.0976			CC[C@H](C)[C@@H]1NC(=O)[C@H](CC(C)C)N(C)C(=O)CC(C(=O)N2CCOCC2)N(C)C(=O)[C@H](C2CCCC2)N(C)C(=O)C2(CCCC2)NC(=O)[C@@H]2CCCN2C(=O)[C@H](CCc2ccc(C(F)(F)F)c(Cl)c2)NC(=O)CN(C)C(=O)[C@H](C2CCCC2)N(C)C(=O)[C@@H]2CCN2C(=O)[C@H](C)NC1=O (single isomer, unassigned) [Compound 10]	
0.0372	0.264	< 0.00109	CCCC[C@@H]1NC(=O)[C@@H]2CCCN2C(=O)[C@H](CCCC)NC(=O)[C@@H](C)N(C)C(=O)C[C@@H](C(=O)N2CCCC2)N(C)C(=O)[C@@H]2CCCN2C(=O)[C@H]([C@@H](C)CC)NC(=O)[C@@H]2CCCCN2C(=O)[C@H](Cc2cccc(Cl)c2)NC(=O)[C@H](COCCC)N(C)C(=O)[C@H](Cc2ccccc2)N(C)C1=O [Compound 5] ([dNMeA][Nle]P[Nle][NMeF][NMeS](Propyl)[Phe(3-Cl)][Pip]IP[NMeD]-Pyrrolidide; lactam N-11)	
< 0.944	5.26		CC[C@H](C)[C@@H]1NC(=O)[C@H](Cc2ccccc2)N(C)C(=O)CN(C)C(=O)C[C@@H](C(=O)N2CCCCC2)NC(=O)[C@H](CC(C)C)N(C)C(=O)[C@H](COC(C)(C)C)NC(=O)[C@H](CC(C)C)N(C)C(=O)[C@H](CCc2ccccc2)N(C)C(=O)CN(C)C(=O)[C@H]([C@@H](C)O)NC(=O)[C@H](CC(C)C)N(C)C1=O (stereo in doubt) [Compound 7]	
< 0.107	0.12	0.103 (≈ 71.2 µM)	CC[C@H](C)[C@@H]1NC(=O)[C@H](Cc2ccccc2)N(C)C(=O)[C@H](Cc2cscn2)NC(=O)[C@@H](C)N(C)C(=O)C[C@@H](C(=O)N2CCCC2)NC(=O)[C@@H]2CCCN2C(=O)[C@H](CCCCC(F)F)N(C)C(=O)CNC(=O)[C@H](Cc2ccccc2)N(C)C(=O)[C@@H]2CCCN2C(=O)[C@H](CCc2ccccc2)N(C)C1=O [Compound 4] ([dNMeA][Ala(4-thiazolyl)][NMeF]I[NMehPhe]P[NMeF]G[NMeNle(6-CHF2)]PD-Pyrrolidide; lactam N-11)	
0.0949	0.214		CC[C@H](C)[C@@H]1NC(=O)C(CC(C)C)N(C)C(=O)CC(C(=O)N(C)C)N(C)C(=O)[C@H](C2CCCC2)N(C)C(=O)C(C)NC(=O)C(C)N(C)C(=O)[C@H](CCc2ccc(C(F)(F)F)c(Cl)c2)NC(=O)CN(C)C(=O)[C@H](CC2CCCCC2)N(C)C(=O)[C@@H]2CCN2C(=O)[C@H](C)N(C)C1=O (single isomer, unassigned) [Compound 9]	

Reference: patent US20250302912A1, “COMPOSITION INCLUDING PEPTIDE COMPOUND AND SURFACTANT” (CHUGAI SEIYAKU KABUSHIKI KAISHA, priority 2021, published 2025)
